Test system: 186277-243-T-J2-PDC complex spheroid growth
Experiment: Anticancer human tumor 186277-243-T-J2-PDC patient-derived colon adenocarcinoma cell line growth inhibition [AhR]
Conditions: for IC50: curve of first compound; for viability, T/C: stronger effect = lower value
In short: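 Spheroids combined tumor cells with HUVEC endothelial cells and human MSCs as stroma. AhR antagonists were paired with standard or investigational drugs, each dosed in half-log steps down from near clinical Cmax, or from 10 microM where Cmax was unknown.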

[1] = second compound 0.1 µM, first compound 0.000949 µM
[2] = second compound 0.1 µM, first compound 0.003 µM
[3] = second compound 0.1 µM, first compound 0.00949 µM
[4] = second compound 0.1 µM, first compound 0.03 µM
[5] = second compound 0.1 µM, first compound 0.0949 µM
[6] = second compound 0.1 µM, first compound 0.3 µM
[7] = second compound 0.316 µM, first compound 0.000949 µM
[8] = second compound 0.316 µM, first compound 0.003 µM
[9] = second compound 0.316 µM, first compound 0.00949 µM
[10] = second compound 0.316 µM, first compound 0.03 µM
[11] = second compound 0.316 µM, first compound 0.0949 µM
[12] = second compound 0.316 µM, first compound 0.3 µM
[13] = second compound 1 µM, first compound 0.000949 µM
[14] = second compound 1 µM, first compound 0.003 µM
[15] = second compound 1 µM, first compound 0.00949 µM
[16] = second compound 1 µM, first compound 0.03 µM
[17] = second compound 1 µM, first compound 0.0949 µM
[18] = second compound 1 µM, first compound 0.3 µM
[19] = second compound 3.16 µM, first compound 0.000949 µM
[20] = second compound 3.16 µM, first compound 0.003 µM
[21] = second compound 3.16 µM, first compound 0.00949 µM
[22] = second compound 3.16 µM, first compound 0.03 µM
[23] = second compound 3.16 µM, first compound 0.0949 µM
[24] = second compound 3.16 µM, first compound 0.3 µM
[25] = second compound 10 µM, first compound 0.000949 µM
[26] = second compound 10 µM, first compound 0.003 µM
[27] = second compound 10 µM, first compound 0.00949 µM
[28] = second compound 10 µM, first compound 0.03 µM
[29] = second compound 10 µM, first compound 0.0949 µM
[30] = second compound 10 µM, first compound 0.3 µM
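Note: spheroids exposed to compounds for seven days before the viability read.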
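Throughout, for viability, T/C: luminescent signal used as a stand-in for viable cell amount; 100% = DMSO vehicle control wells.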

Work on `CC(C)CC(NC(=O)C(Cc1ccccc1)NC(=O)c1cnccn1)B(O)O` (stereo not given) + Cc1cncc(-c2nc(NCCc3c[nH]c4ccccc34)c3ncn(C(C)C)c3n2)c1 yielded an IC50 (second compound 0.1 µM) of 0.0158 µM, an IC50 (second compound 0.316 µM) of 0.0158 µM and an IC50 (second compound 1 µM) of 0.0164 µM. The IC50 (second compound 3.16 µM) was 0.0124 µM, the IC50 (second compound 10 µM) was < 0.000949 µM and the viability, T/C [1] was 103%. The viability, T/C [2] was 108%, the viability, T/C [3] was 88.1% and the viability, T/C [4] was 1.86%. The viability, T/C [5] was 0.49%, the viability, T/C [6] was 0.14% and the viability, T/C [7] was 131%. It also gave a viability, T/C [8] of 120%, a viability, T/C [9] of 89.1% and a viability, T/C [10] of 0.33%. It also gave a viability, T/C [11] of 0.05%, a viability, T/C [12] of 0.12% and a viability, T/C [13] of 97.3%. It also gave a viability, T/C [14] of 107%, a viability, T/C [15] of 95.2% and a viability, T/C [16] of 0.51%. For the same molecule, the viability, T/C [17] was 0.15%, the viability, T/C [18] was 0.11% and the viability, T/C [19] was 102%. It also gave a viability, T/C [20] of 116%, a viability, T/C [21] of 65.1% and a viability, T/C [22] of 0.66%. The viability, T/C [23] was 0.05%, the viability, T/C [24] was 0.13% and the viability, T/C [25] was 44.9%. For the same molecule, the viability, T/C [26] was 53.5%, the viability, T/C [27] was 1.63% and the viability, T/C [28] was 0.26%. The viability, T/C [29] was 0.13% and the viability, T/C [30] was 0.2%.

`CCc1c2c(nc3ccc(O)cc13)-c1cc3c(c(=O)n1C2)COC(=O)[C@]3(O)CC` + Cc1cncc(-c2nc(NCCc3c[nH]c4ccccc34)c3ncn(C(C)C)c3n2)c1 gave an IC50 (second compound 0.1 µM) of 0.0232 µM, an IC50 (second compound 0.316 µM) of 0.0204 µM and an IC50 (second compound 1 µM) of 0.0262 µM. The IC50 (second compound 3.16 µM) was 0.0178 µM, the IC50 (second compound 10 µM) was < 0.000949 µM and the viability, T/C [1] was 112%. For the same molecule, the viability, T/C [2] was 96%, the viability, T/C [3] was 66% and the viability, T/C [4] was 46.1%. The viability, T/C [5] was 25.2%, the viability, T/C [6] was 11.7% and the viability, T/C [7] was 126%. For the same molecule, the viability, T/C [8] was 83.1%, the viability, T/C [9] was 70.9% and the viability, T/C [10] was 44.2%. The viability, T/C [11] was 21.7%, the viability, T/C [12] was 11.7% and the viability, T/C [13] was 123%. For the same molecule, the viability, T/C [14] was 83.7%, the viability, T/C [15] was 73.5% and the viability, T/C [16] was 48.5%. The viability, T/C [17] was 20.2%, the viability, T/C [18] was 11.8% and the viability, T/C [19] was 108%. The viability, T/C [20] was 75.2%, the viability, T/C [21] was 66.8% and the viability, T/C [22] was 43.7%. It also gave a viability, T/C [23] of 17.3%, a viability, T/C [24] of 9.67% and a viability, T/C [25] of 24.6%. For the same molecule, the viability, T/C [26] was 28.9%, the viability, T/C [27] was 32% and the viability, T/C [28] was 17.6%. It also gave a viability, T/C [29] of 6.54% and a viability, T/C [30] of 3.87%.

With `COc1cc(Nc2ncc3c(n2)-c2ccc(Cl)cc2C(c2c(F)cccc2OC)=NC3)ccc1C(=O)O` + Cc1cncc(-c2nc(NCCc3c[nH]c4ccccc34)c3ncn(C(C)C)c3n2)c1 the IC50 (second compound 0.1 µM) was > 10 µM, the IC50 (second compound 0.316 µM) was > 10 µM and the IC50 (second compound 1 µM) was > 10 µM. The IC50 (second compound 3.16 µM) was > 10 µM, the IC50 (second compound 10 µM) was < 0.0316 µM and the viability, T/C (second compound 0.1 µM, first compound 0.0316 µM) was 90.2%. For the same molecule, the viability, T/C (second compound 0.1 µM, first compound 0.1 µM) was 77.9%, the viability, T/C (second compound 0.1 µM, first compound 0.316 µM) was 70.2% and the viability, T/C (second compound 0.1 µM, first compound 1 µM) was 61.6%. For the same molecule, the viability, T/C (second compound 0.1 µM, first compound 3.16 µM) was 70.5%, the viability, T/C (second compound 0.1 µM, first compound 10 µM) was 74.5% and the viability, T/C (second compound 0.316 µM, first compound 0.0316 µM) was 91.9%. For the same molecule, the viability, T/C (second compound 0.316 µM, first compound 0.1 µM) was 78.6%, the viability, T/C (second compound 0.316 µM, first compound 0.316 µM) was 72.3% and the viability, T/C (second compound 0.316 µM, first compound 1 µM) was 61.8%. It also gave a viability, T/C (second compound 0.316 µM, first compound 3.16 µM) of 67.1%, a viability, T/C (second compound 0.316 µM, first compound 10 µM) of 72.2% and a viability, T/C (second compound 1 µM, first compound 0.0316 µM) of 96.9%. For the same molecule, the viability, T/C (second compound 1 µM, first compound 0.1 µM) was 75.4%, the viability, T/C (second compound 1 µM, first compound 0.316 µM) was 74.4% and the viability, T/C (second compound 1 µM, first compound 1 µM) was 67.1%. The viability, T/C (second compound 1 µM, first compound 3.16 µM) was 64.3%, the viability, T/C (second compound 1 µM, first compound 10 µM) was 70.6% and the viability, T/C (second compound 3.16 µM, first compound 0.0316 µM) was 93.2%. It also gave a viability, T/C (second compound 3.16 µM, first compound 0.1 µM) of 71.4%, a viability, T/C (second compound 3.16 µM, first compound 0.316 µM) of 71.9% and a viability, T/C (second compound 3.16 µM, first compound 1 µM) of 59.4%. For the same molecule, the viability, T/C (second compound 3.16 µM, first compound 3.16 µM) was 63%, the viability, T/C (second compound 3.16 µM, first compound 10 µM) was 71.5% and the viability, T/C (second compound 10 µM, first compound 0.0316 µM) was 37.9%. The viability, T/C (second compound 10 µM, first compound 0.1 µM) was 27.4%, the viability, T/C (second compound 10 µM, first compound 0.316 µM) was 23.2% and the viability, T/C (second compound 10 µM, first compound 1 µM) was 24.6%. It also gave a viability, T/C (second compound 10 µM, first compound 3.16 µM) of 23.8% and a viability, T/C (second compound 10 µM, first compound 10 µM) of 31.6%.
